Values of other authors as cited in patent publication US7488755B2, “Derivatives of glycinergic R(+)-2-amino-3-hydroxypropanoic acid” (Prestwick Pharmaceuticals, Inc., priority 2002, dated 2009).

How the values were obtained:
schizophrenic patients = conditions: very high oral doses (>30 g/day)
schizophrenia patients = conditions: 2 g/day, double-blind clinical trial, also in patients with little response to conventional antipsychotics

NCC(=O)O [glycine]
effect on negative symptoms in schizophrenic patients (schizophrenic patients): improvement in the negative symptoms

N[C@H](CO)C(=O)O [D-serine]
efficacy in the treatment of schizophrenia (schizophrenia patients): effective in the treatment of schizophrenia
